The values that follow are results of earlier work, collected in patent publication US9750812B2, “Lipid based pharmaceutical preparations for oral and topical application; their compositions, methods, and uses thereof” (JINA PHARMACEUTICALS, INC., priority 2008, dated 2017).

In the case of `CC(C)(C)NC(=O)[C@H]1CC[C@H]2[C@@H]3CC[C@H]4NC(=O)C=C[C@]4(C)[C@H]3CC[C@]12C` [finasteride, (5α, 17β)-N-(1,1-dimethylethyl)-3-oxo-4-azaandrost-1-ene-17-carboxamide], the “solubility in organic solvents” value (organic solvents such as ethanol and methanol) is “soluble”. Further, for the setting “water”, the solubility in water result was “practically insoluble”.
